{"source": "patent EP2204099A1", "about": "“Methods for producing pure amino acid chelate complexes, and uses thereof” (Viva Pharmaceuticals Inc., priority 2008, dated 2010)", "key": {"[1]": {"test_system": "CTX-induced immunodeficient mice", "assay": "Clearance of charcoal particles (carbon clearance test) in CTX-induced immunodeficient mice", "format": "in vivo", "details": "17 mg/kg per os; CTX 50 mg/kg i.p.; x±sd, n=10", "method": "A total of 70 mice were divided into 7 treatment groups: Vehicle; CTX (cyclophosphamide) + Vehicle; CTX+ZnSO4 (17mg mg/kg); CTX+Zinc chelate (Zn:2Asp:2Lys) (57 mg/kg); CTX+Zinc chelate (Zn:2Asp:2Lys) (114 mg/kg); CTX+Zinc chelate (Zn:2Asp:2Lys) (228 mg/kg); and CTX+Zinc chelate (Zn:2Asp:2Lys) (456 mg/kg). The mice were administrated per os at least 16 days before experimentation. CTX was given as an intraperitoneal injection at the dose of 50 mg/kg every day for 4 days after 9 days of drug administration.\nSixty minutes after the last drug administration, mice were injected with 1:3 diluted Indian ink 10 ml/kg. At 1 min (T1) and 11 min (T2), bold 40µl was taken from retroocular venous plexus and resolved in 0.1 % Na2CO3 solution 4 ml. The absorbance (OD) was measured at 600 nm by a 721 spectrophotometer. The clearance rate K and clearance index a were calculated: K = (lgOD1-lgOD2)/T2 -T1 [formula] α = K^(1/3) × W/(liver weight+spleen weight) [formula] (W: weight of mouse)"}, "[2]": {"test_system": "CTX-induced immunodeficient mice", "assay": "Serum hemolysin test in CTX-induced immunodeficient mice", "format": "in vivo", "details": "17 mg/kg per os; SRBC-immunized; CTX 50 mg/kg i.p.; x±sd, n=10", "method": "A total of 70 mice were divided into […] treatment groups: Vehicle; CTX (cyclophosphamide) + Vehicle; CTX+Zinc Sulphate (17mg mg/kg); CTX+Zinc chelate (Zn:[…]:[…]) (57 mg/kg); CTX+Zinc chelate (Zn:[…]:[…]) (114 mg/kg); CTX+Zinc chelate (Zn:[…]:[…]) (228 mg/kg); CTX+Zinc chelate (Zn:[…]:[…]) (456 mg/kg). The mice were administrated per os at least 16 days before experimentation. After 8 days of drug or vehicle administration, all mice were immunized with an intraperitioneal injection of 0.2 ml of 20% SRBC (sheep red blood cell) in saline. CTX was given intraperitoneal injection at the dose of 50 mg/kg every day for 4 days after 9 days of drug administration. Sixty minutes after the last drug administration, blood was collected by retroorbital venous plexus puncture, and then centrifuged (2000 r/min 5 min). Sheep red cell suspension 0.5 ml (5% sheep red cell in saline) was added to 1 ml diluted sera (1:500 dilution with saline), followed by 1 ml diluted guinea pig plasma (10% plasma in saline) in sequence. For negative controls, the durg waqs substituted with saline. The samples and controls were incubated for 10 min at 37°C, and then immersed in an ice-water bath (0°C) to stop the reaction. […] The absorbance for each tube was recorded and the 50% hemolytic dose (HC50) was calculated as follows: Sample HC50 = sample absorbance 50% hemolytic absorbance x dilution factors."}}}
{"substance": "Zinc Sulphate", "values": [{"measurement": "α (clearance index)", "setting": "[1]", "result": "4.2988±1.4347"}, {"measurement": "HC50 (serum hemolysin)", "setting": "[2]", "result": "141.7±29.5"}]}
